In assay [1] the target is T1, Sigma non-opioid intracellular receptor 1 (Rattus norvegicus, UniProt Q9R0C9). Kind of assay: Inhibition of [3H]- N-allylnormetazocine ([3H]NANM) binding to sigma receptor.
Assay [2] has as its target T2, Glutamate receptor ionotropic, NMDA 2C (Rattus norvegicus, UniProt Q00961). Kind of assay: Inhibition of [3H]1-[1-(2-thienyl) piperidine ([3H]TCP) binding to PCP receptor; NI = No detectable inhibition of binding at 30 uM.
In assay [3] the target is T2, Glutamate receptor ionotropic, NMDA 2C. Briefly: Inhibition of [3H]1-[1-(2-thienyl) piperidine ([3H]TCP) binding to PCP receptor.
For assay [4], the species on record is Rattus norvegicus. Briefly: (§1) Compound was tested for induction of phencyclidine (PCP) like stereotyped behavior. The class given is functional.
Assay [5] concerns the target Glutamate receptor ionotropic, NMDA 2C (Rattus norvegicus) (UniProt Q00961). The description is as §1. The assay is classed as functional.
For assay [6] the target is unchanged. Briefly: (§2) Compound was tested for induction of phencyclidine (PCP) like ataxia behavior. The class given is functional.
The species named for assay [7] is Rattus norvegicus. The assay is described as §2. The assay is classed as functional.
The target in assay [8] is T2, Glutamate receptor ionotropic, NMDA 2C. Kind of assay: Inhibition of [3H]1-[1-(2-thienyl) piperidine ([3H]TCP) binding to phencyclidine receptor; NI = No detectable inhibition of binding at 30 uM.
Assay [9] has as its target T1, Sigma non-opioid intracellular receptor 1. Briefly: Inhibition of [3H]- N-allylnormetazocine ([3H]-NANM) binding to sigma receptors; NI = No detectable inhibition of binding at 30 uM.

T1 sequence (Q9R0C9 whole entry): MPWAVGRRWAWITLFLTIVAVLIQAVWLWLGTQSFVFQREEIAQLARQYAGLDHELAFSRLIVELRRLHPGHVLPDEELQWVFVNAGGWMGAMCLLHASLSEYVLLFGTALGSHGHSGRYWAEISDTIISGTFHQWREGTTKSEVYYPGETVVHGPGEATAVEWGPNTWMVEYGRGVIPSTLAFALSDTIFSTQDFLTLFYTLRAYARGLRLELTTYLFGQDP
Glutamate receptor ionotropic, NMDA 2C (Rattus norvegicus), sequence (Q00961 20-1237 limits assumed): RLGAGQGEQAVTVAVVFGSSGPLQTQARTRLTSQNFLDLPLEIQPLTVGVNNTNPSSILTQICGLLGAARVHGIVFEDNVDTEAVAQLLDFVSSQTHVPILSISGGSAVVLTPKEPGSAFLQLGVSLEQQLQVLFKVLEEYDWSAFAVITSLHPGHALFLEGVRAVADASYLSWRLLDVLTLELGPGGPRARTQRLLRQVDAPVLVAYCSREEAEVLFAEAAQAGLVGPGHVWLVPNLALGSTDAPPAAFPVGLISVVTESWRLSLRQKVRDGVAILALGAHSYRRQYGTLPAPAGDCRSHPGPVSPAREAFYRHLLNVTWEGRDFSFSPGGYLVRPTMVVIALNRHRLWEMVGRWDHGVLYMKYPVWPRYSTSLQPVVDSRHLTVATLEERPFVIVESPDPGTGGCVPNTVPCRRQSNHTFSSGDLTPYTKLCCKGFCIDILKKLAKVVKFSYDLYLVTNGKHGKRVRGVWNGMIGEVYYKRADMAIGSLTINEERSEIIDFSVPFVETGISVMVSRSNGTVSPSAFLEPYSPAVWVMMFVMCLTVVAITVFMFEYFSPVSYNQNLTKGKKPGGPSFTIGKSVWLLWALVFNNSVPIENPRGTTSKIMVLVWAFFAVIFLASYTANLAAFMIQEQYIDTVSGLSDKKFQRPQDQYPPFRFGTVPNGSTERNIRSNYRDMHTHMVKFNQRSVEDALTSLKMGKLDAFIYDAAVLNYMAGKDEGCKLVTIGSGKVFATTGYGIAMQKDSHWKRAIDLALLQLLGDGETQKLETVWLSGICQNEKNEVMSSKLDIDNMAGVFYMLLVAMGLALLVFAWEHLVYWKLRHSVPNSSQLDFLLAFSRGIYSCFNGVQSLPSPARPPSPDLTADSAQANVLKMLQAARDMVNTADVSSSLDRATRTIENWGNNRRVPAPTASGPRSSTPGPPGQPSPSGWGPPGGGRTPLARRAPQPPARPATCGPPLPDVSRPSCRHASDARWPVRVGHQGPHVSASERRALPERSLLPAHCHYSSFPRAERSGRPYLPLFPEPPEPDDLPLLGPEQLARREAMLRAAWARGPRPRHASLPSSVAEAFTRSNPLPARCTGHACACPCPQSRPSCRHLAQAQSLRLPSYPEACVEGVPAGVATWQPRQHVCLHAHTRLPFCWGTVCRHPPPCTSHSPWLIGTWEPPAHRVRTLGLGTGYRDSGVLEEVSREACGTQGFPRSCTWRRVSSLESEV
T2 sequence (Q00961 whole entry): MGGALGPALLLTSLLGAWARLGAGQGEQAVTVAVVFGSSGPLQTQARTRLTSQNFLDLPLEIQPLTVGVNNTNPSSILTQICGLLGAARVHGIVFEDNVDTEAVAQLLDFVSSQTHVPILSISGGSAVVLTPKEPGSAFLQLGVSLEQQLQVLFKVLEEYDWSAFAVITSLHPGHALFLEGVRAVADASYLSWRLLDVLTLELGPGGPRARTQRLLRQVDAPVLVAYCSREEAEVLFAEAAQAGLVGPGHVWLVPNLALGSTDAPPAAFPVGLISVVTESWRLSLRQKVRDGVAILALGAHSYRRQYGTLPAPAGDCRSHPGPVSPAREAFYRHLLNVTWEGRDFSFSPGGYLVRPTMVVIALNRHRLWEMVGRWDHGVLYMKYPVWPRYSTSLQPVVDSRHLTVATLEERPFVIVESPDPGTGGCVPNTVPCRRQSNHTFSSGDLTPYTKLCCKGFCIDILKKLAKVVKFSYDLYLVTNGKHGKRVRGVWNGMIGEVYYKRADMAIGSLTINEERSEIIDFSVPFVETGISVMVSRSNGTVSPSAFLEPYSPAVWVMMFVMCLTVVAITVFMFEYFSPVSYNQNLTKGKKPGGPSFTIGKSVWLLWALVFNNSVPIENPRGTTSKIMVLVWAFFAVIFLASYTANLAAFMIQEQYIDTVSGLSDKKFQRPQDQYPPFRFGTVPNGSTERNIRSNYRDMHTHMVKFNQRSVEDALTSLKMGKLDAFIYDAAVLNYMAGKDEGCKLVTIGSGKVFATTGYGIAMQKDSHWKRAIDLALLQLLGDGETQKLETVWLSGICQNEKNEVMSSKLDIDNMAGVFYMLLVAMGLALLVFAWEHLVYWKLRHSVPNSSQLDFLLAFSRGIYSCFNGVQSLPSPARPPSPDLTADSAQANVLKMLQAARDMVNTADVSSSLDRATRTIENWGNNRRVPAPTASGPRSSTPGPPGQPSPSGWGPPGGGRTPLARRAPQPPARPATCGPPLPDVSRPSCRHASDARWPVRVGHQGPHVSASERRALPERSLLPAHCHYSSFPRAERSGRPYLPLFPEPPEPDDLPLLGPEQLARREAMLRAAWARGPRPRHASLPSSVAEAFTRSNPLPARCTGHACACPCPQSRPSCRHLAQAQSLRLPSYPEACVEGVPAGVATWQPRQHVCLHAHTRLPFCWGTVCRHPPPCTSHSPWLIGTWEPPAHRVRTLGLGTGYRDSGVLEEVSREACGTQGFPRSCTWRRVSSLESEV

In assay [1], `CC1Cc2ccccc2C(C)N1` (stereo unspecified) displayed an IC50 of 15 µM.
In the case of `c1csc(C2(N3CCCCC3)CCCCC2)c1` [TENOCYCLIDINE], the concentration for half-maximal inhibition (IC50) in assay [1] came out at 0.24 µM.
With `C=CCN1CCc2ccsc2C1c1ccccc1` (stereo unspecified), the values for the IC50 entry in assay [2] and in assay [1] were “Not Active” and 20 µM, respectively.
Take `CN1CCc2ccccc2C1`: the IC50 in assay [1] is 2.7 µM.
With `CC(C)C1NCCc2ccccc21` (stereo unspecified), the 50% inhibitory concentration (IC50) in [1] was 2.5 µM.
Same read-out and setting: in the case of `C=CCN1C(C)Cc2ccccc2C1C` (stereo unspecified) it was 1.6 µM.
In the case of `c1csc(C2NCCc3ccccc32)c1` (stereo unspecified), the IC50 was 7.6 µM in assay [3] and 3.8 µM in assay [1]. Further, the 50% effect level in the assay listed under Rattus norvegicus [4] (ED50) was put at a dose of 54 mg/kg.
For the compound `c1ccc(C2CNCc3ccccc32)cc1` (stereo unspecified), the IC50 in assay [1] is 4.2 µM.
For `CCOCCN1CCc2ccccc2C1c1ccccc1` (stereo unspecified), the IC50 in assay [3] amounted to 8.2 µM; in assay [1] it was 5.4 µM.
Turning to `c1ccc(CC2NCCc3ccccc32)cc1` (stereo unspecified), the ED50 in assay [5] is 26 mg/kg; in assay [6], 42 mg/kg. The compound also had a half-inhibitory concentration (IC50) in assay [1] of 0.43 µM.
In turn, `C=CCN1CCc2ccccc2C1c1ccccc1` (stereo unspecified) yielded an IC50 in assay [1] of 1.3 µM.
On the same count and under the same terms, in the case of `CN1CCc2ccccc2C1c1ccccc1` (stereo unspecified) it was 2.9 µM.
For `COc1ccccc1-c1cccc2c1CNCC2`, the results for the IC50 in assay [3] and in assay [1] were 0.9 µM and 1.8 µM, respectively. Also, the ED50 is 20 mg/kg in the assay listed under Rattus norvegicus [4] and 22 mg/kg in the assay listed under Rattus norvegicus [7].
In the same order, the values of `c1ccc(C2NCCc3ccsc32)cc1` (stereo unspecified) are 8.8 µM, 6.3 µM, over 50 mg/kg and over 50 mg/kg.
`c1ccc(C2Cc3ccccc3CN2)cc1` (stereo unspecified): the median effective dose (ED50) turned out to be 19 mg/kg in assay [5] and 18 mg/kg in assay [6]. This compound also registered an IC50 in assay [1] of 2.6 µM.
Consider `CC(C)CC1NCCc2ccccc21` (stereo unspecified), for which the IC50 in [1] came to 5 µM.
In the case of `c1ccc(CN2CCc3ccccc3C2)cc1`, the IC50 entry was “Not Active” in assay [8] and 7.8 µM in assay [1].
In the case of `C=CCN1CCc2ccsc2C1C(C)C` (stereo unspecified), the IC50 in assay [3] turned out to be 8.5 µM; in assay [1], 5 µM.
Turning to `c1ccc(-c2cccc3c2CNCC3)cc1`, the 50% effective dose (ED50) is 28 mg/kg in assay [5] and 44 mg/kg in assay [6]. The IC50 in assay [1] worked out at 2.7 µM.
On to `C=CCN1CCc2ccccc2C1C1CCCCC1` (stereo unspecified), for which the IC50 in [1] is 3.1 µM.
The compound `Cc1ccc(C2NCCc3ccccc32)cc1` (stereo unspecified) registered an IC50 in assay [1] of 5.6 µM.
Take `CCN1CCc2ccsc2C1C(C)C` (stereo unspecified): the values for the IC50 in assay [3] and in [9] were 12 µM and “Not Active”, respectively.
Regarding `CC(C)C1c2sccc2CCN1C` (stereo unspecified), the IC50 in [3] came to 17 µM; in assay [1], 7.8 µM.
Turning to `c1ccc2c(c1)CCNC21CCCCC1`, the IC50 result in [8] and in assay [9] was “Not Active” throughout.
With `c1ccc(C2NCCc3ccccc32)cc1` (stereo unspecified), the ED50 is 25 mg/kg in [5] and over 20 mg/kg in assay [6].
In the case of `COc1ccc(C2NCCc3ccccc32)cc1` (stereo unspecified), the IC50 in assay [3] was 2.5 µM; in assay [1], 2.2 µM.
As for `c1ccc(C2NCc3ccccc32)cc1` (stereo unspecified), the concentration for half-maximal inhibition (IC50) in assay [1] was over 30 µM.
Still for that read-out and setting: in the case of `c1ccc2c(c1)CCNC2c1ccc2ccccc2c1` (stereo unspecified) it was 10 µM; in that of `C=CCN1CC[C@]2(C)c3ccccc3CC1[C@@H]2C`, 0.05 µM.
For `c1ccc2c(c1)CCNC2C1CCCCC1` (stereo unspecified), the IC50 in assay [1] was found to be 11 µM.
`CCN1CCc2ccccc2C1c1ccccc1` (stereo unspecified): the IC50 in [1] stood at 1.3 µM.
Take `c1ccc(C2(N3CCCCC3)CCCCC2)cc1` [PHENCYCLIDINE]: the results for the ED50 in [5] and in assay [6] were 4.7 mg/kg and 6.5 mg/kg, respectively. Moreover, the IC50 in assay [1] stood at 0.53 µM.
For the compound `c1ccc(C2NCCCc3ccccc32)cc1` (stereo unspecified), the IC50 entry in assay [8] and in assay [9] was “Not Active” in each case.
For `CC1NCCc2ccsc21` (stereo unspecified), the IC50 was over 30 µM in [3] and 11 µM in assay [1].
Take `Fc1ccc(C2NCCc3ccccc32)cc1` (stereo unspecified): the ED50 in assay [5] was found to be 38 mg/kg; in [6] it was 49 mg/kg. Further, in assay [1], the IC50 worked out at 1.8 µM.
For `CC(C)C1NCCc2ccsc21` (stereo unspecified), the IC50 in [3] is 17 µM; in assay [1], 3.8 µM.
Compound `Clc1ccc(C2NCCc3ccccc32)cc1` (stereo unspecified) registered a half-inhibitory concentration (IC50) in assay [1] of 3.4 µM.
The same measure, in the same setting: as for `CC1Cc2ccccc2CN1C` (stereo unspecified), the figure is 2.6 µM; as for `CC1Cc2ccccc2CN1Cc1ccccc1` (stereo unspecified), 3.2 µM.
Turning to `C=CCN1CCc2ccccc2C1c1ccc2ccccc2c1` (stereo unspecified), the IC50 entry in assay [8] is “Not Active”; in [1], 11 µM.

For the origin of these results see ChEMBL document CHEMBL1124619, “Phencyclidine-like effects of tetrahydroisoquinolines and related compounds” (J Med Chem, 1989).
